We go through three molecules from patent US4870060A, “Derivatives of γ-cylodextrin” (Janssen Pharmaceutica, priority 1988, dated 1989).

Each structure is given as a SMILES string. Values after ≈ are worked out from the molar mass of the structure shown.

The nature of data set [1]: content of 3-chloro-6-[3,6-dihydro-4-(3-methylphenyl)-1(2H)-pyridinyl]pyridazine in solutions of γ-CD derivatives (procedure of example 4). In kind it is physicochemical. As to the method:
(§1) Starting from a 5% stock solution of a particular γ-CD derivative in a phosphate buffer of pH 7.4, a dilution series was obtained with concentrations varying of from 0% to 5% with 0.5% steps. 3 ml of these solutions were pipetted into a closed container containing an appropriate amount of progesteron. After 5 days shaking at 25° C., the thus obtained mixture was filtered over a membrane filter (pore diameter: 0.22 μm), and the content of progesteron was determined with high pressure liquid chromatography (using a column of 25 cm length; 5 mm internal diameter; packed with 5 μm ODS-hypersil (RP-18); eluent: acetonitrile/water; U.V. detection). The results of these concentration measurements for a number of the γ-CD derivatives of the present invention and for unsubstituted γ-CD gathered in the following table.
Following the procedures described in example 4 the content of 3-chloro-6-[3,6-dihydro-4-(3-methylphenyl)-1(2H)-pyridinyl]pyridazine was determined in solutions containing various concentrations of γ-CD derivatives. Said pyridazine compound is described in Published Europ. Pat. Appl. No. 0,156,433 as a useful anti-viral agent.

A short description of data set [2]: content of progesteron dissolved in solutions of γ-CD derivatives (phosphate buffer pH 7.4, 5 days shaking at 25° C., HPLC). In kind it is physicochemical. Conditions: phosphate buffer pH 7.4, 25° C. As to the method: as §1
The conditions of data set [3]: cited from earlier work.
[4] abbreviates: 1% γ-CD or derivative (weight by volume).
The mark [5] stands for this setting: 2.5% γ-CD or derivative (weight by volume).
[6] abbreviates: 5% γ-CD or derivative (weight by volume).

Take `OC[C@H]1O[C@@H]2O[C@H]3[C@H](O)[C@@H](O)[C@@H](O[C@H]4[C@H](O)[C@@H](O)[C@@H](O[C@H]5[C@H](O)[C@@H](O)[C@@H](O[C@H]6[C@H](O)[C@@H](O)[C@@H](O[C@H]7[C@H](O)[C@@H](O)[C@@H](O[C@H]8[C@H](O)[C@@H](O)[C@@H](O[C@H]9[C@H](O)[C@@H](O)[C@@H](O[C@H]1[C@H](O)[C@H]2O)O[C@@H]9CO)O[C@@H]8CO)O[C@@H]7CO)O[C@@H]6CO)O[C@@H]5CO)O[C@@H]4CO)O[C@@H]3CO` [unsubstituted γ-CD, γ-cyclodextrin]: the “content of 3-chloro-6-[3,6-dihydro-4-(3-methylphenyl)-1(2H)-pyridinyl]pyridazine” value in data set [1] (setting [4]) was found to be 2.0 µg/mL; in data set [1] (setting [5]), 0.8 µg/mL; in data set [1] (setting [6]), 0.8 µg/mL. Moreover, the content of progesteron amounted to 425 µg/mL in data set [2] (0.5% γ-CD or derivative (weight by volume)); 343 µg/mL in data set [2] (setting [4]); 275 µg/mL in data set [2] (1.5% γ-CD or derivative (weight by volume)); 203 µg/mL in data set [2] (2% γ-CD or derivative (weight by volume)); 163 µg/mL in data set [2] (setting [5]); 93 µg/mL in data set [2] (3% γ-CD or derivative (weight by volume)). The content of progesteron amounted to 60 µg/mL in data set [2] (3.5% γ-CD or derivative (weight by volume)), 54 µg/mL in data set [2] (4% γ-CD or derivative (weight by volume)), 46 µg/mL in data set [2] (4.5% γ-CD or derivative (weight by volume)) and 45 µg/mL in data set [2] (setting [6]). Besides, the water solubility result in data set [3] was “excellent water solubility”.
The molecule `CC(=O)[C@H]1CC[C@H]2[C@@H]3CCC4=CC(=O)CC[C@]4(C)[C@H]3CC[C@]12C` [progesteron] had a solubility (thermodynamic) at 120 h in data set [2] (aqueous buffer, 0% γ-CD derivative (weight by volume)) of 5.9 µg/mL (≈ 18.8 µM).
`Cc1cccc(C2=CCN(c3ccc(Cl)nn3)CC2)c1` [3-chloro-6-[3,6-dihydro-4-(3-methylphenyl)-1(2H)-pyridinyl]pyridazine] gave a thermodynamic solubility at 120 h in data set [1] (phosphate buffer ph 7.4, pH 7.4, aqueous buffer, 0% γ-CD derivative (weight by volume)) of 0.4 µg/mL (≈ 1.4 µM).

The solubility (thermodynamic) is solubility found after equilibrating the solid with the medium.
